Reference: patent publication US20040171019A1, “PIN1 peptidyl-prolyl isomerase polypeptides, their crystal structures, and use thereof for drug design” (Agouron Pharmaceuticals, Inc., priority 2002, published 2004)
pIC50: −log10 of the molar value. Numbered stars: 1 amine (or outer) side, 2 acyl side, 3 side chain; on linkers, the order of the positions; unused ones are H or OH. Square brackets hold non-standard residues; d marks the D form. Peptide text beside a SMILES is read from it. * marks the point of attachment. pS = N[C@@H](COP(=O)(O)O)C(=O)O; pNA = O=[N+]([O-])c1ccc(N*)cc1; Suc = O=C(CCC(=O)[*:2])[*:1]

How the values were obtained:
[1] = target: T1, PPIase domain of PIN1 (Homo sapiens, UniProt Q13526); test: Fluorescence polarization competition assay with fluorescein-tagged Pintide; format: binding; settings: free Pintide as inhibitor control
T1 construct: made in house; host or cells: E. coli BL21(DE3)
Text: This assay is based on fluorescence polarization. In fluorescence polarization detection, monochromatic light passes through a polarized filter and excites molecules in the sample well. Only those molecules that are oriented properly in the polarized plane absorb light, become excited, and subsequently emit light. The emitted light is detected after passing through polarizing filters that are oriented parallel and perpendicular to the plane of excitation. Since small molecules rotate more quickly than large molecules (e.g. in the form of a bound complex), the parallel (S) and perpendicular (P) measurements are closer and the difference is lower. Fluorescence polarization is measured in mP (milliP) which is defined using the following equation: […]
For the PIN1 assay, library compounds compete with fluorescein-tagged Pintide to bind the PPIase domain of PIN1. After a short incubation, samples are assayed using fluorescence polarization. The excitation and emission of fluorescein occur at 485 nm and 530 nm, repectively. […]
Experiments were performed in either 96-well plates or 384-well black flat bottom polystyrene non-binding surface (NBS) plates (Costar). […] Excitation was measured at 485 nm and emission was measured at 530 nm. Readings were taken in a Florescence Polarization reader (Molecular Devices Analyst). […]

[2] = target: T2, His-tagged construct of the K77Q/K82Q PPIase domain (Homo sapiens, UniProt Q13526, K77Q/K82Q); test: Isothermal titration calorimetry; format: binding
T2 construct: made in house; host or cells: E. coli BL21(DE3)
Experimental: The working volume of the ITC cell was 1.414 mL. Both solutions contained 25 mM MOPS pH 7.5, 0.5 mM TCEP and 2.0% DMSO (vol./vol.). The PPIase polypeptide solution was prepared by exhaustively dialyzing a stock protein solution against several changes of dialysis buffer (25 mM MOPS pH 7.5, 0.5 mM TCEP) at 4.0° C.
After dialysis the protein was centrifuged to remove any particulate matter. The protein concentration was then determined by absorbance using an extinction coefficient that had been calculated based on the tryptophan and tyrosine content of the protein. The dialysed protein was then diluted with the dialysate and 2.0% (volume to volume) DMSO was added to yield a final concentration of 200 μM protein. […] An aliquot of the stock solution was diluted in DMSO and then an appropriate volume of dialysate was added. The final DMSO concentration was 2.0% (volume to volume) and the final compound concentration was 10 μM.
Appropriate control titrations (buffer into buffer, buffer into compound, and protein into buffer) were performed to determine the heats of dilution. Prior to fitting for the binding parameters, the observed heats of binding were corrected for heat of dilution of the protein. […] The data were fit using the ORIGIN® software package (MicroCal) provided with the ITC (FIG. 6). […] The One Set of Sites model with ligand in the cell was selected.

[3] = target: T3, mutant PPIase K77Q/K82Q (Homo sapiens, UniProt Q13526, K77Q/K82Q); test: PIN1 peptidyl-prolyl isomerase assay (protease-coupled, Suc-AEPF-pNA); format: biochemical; settings: 15° C., read-out: Km for this substrate
T3 construct: 6xHis (N, cleaved yes); made in house; host or cells: E. coli BL21(DE3)
Experimental: PIN1 is a phosphorylation dependent peptidyl-prolyl isomerase. […] Cleavage of the isomerized peptide releases para-nitroanaline, which can be monitored by an increase in absorbance at 390 nm. […] To minimize the spontaneous isomerization of the peptide substrate, reactions are performed at 15° C.
The rate constant k is linearly proportional to the concentration of active enzyme present in the assay mixture once the rate constant for the spontaneous isomerization is subtracted.

[4] = test system: Suc-AEPF-pNA peptide substrate; test: Peptidyl-prolyl isomerase activity of PIN1 polypeptides without inhibitor; format: biochemical; settings: 0.033 nM enzyme, 100 μM Suc-AEPF-pNA
Text: PIN1 is a phosphorylation dependent peptidyl-prolyl isomerase. Peptidyl-prolyl ismomerase activity for the peptides of the invention can be measured using a spectrophotometric assay based on the coupled chymotrypsin catalyzed, cis-trans conformation dependent cleavage of a para-nitroanaline-containing peptide substrate. This rotamase assay is described by Kofron et al. (Biochemistry 30, […] (1991)) and its application to PIN1 isomerase activity is described by Yaffe et al. (Science 278, 1957-1960 (1997)). Cleavage of the isomerized peptide releases para-nitroanaline, which can be monitored by an increase in absorbance at 390 nm. The PIN1 peptide substrate, succinyl-alanine-[…]-proline-phenylalanine-paranitroaniline (Suc-AEPF-pNA) (Bachem California, Inc., Torrence, Calif.) is kept in a predominantly cis conformation with an anhydrous TFE (trifluorethanol)/LiCl (lithium chloride) solvent mixture. […]
Peptidyl-prolyl isomerase reactions were carried out in 25 mM MOPS [3-(N-Morpholino)propanesufonic acid], pH 7.5, 0.5 mM TCEP [Tris(2-carboxyethyl)phosphine hydrochloride], 2% DMSO, 5 μl of a 25 mg/ml solution of Subtilisin Carlsberg Protease (Sigma), […], and 100 μM Suc-AEPF-pNA peptide substrate. […] The absorbance at 390 nm was monitored continuously until all substrate had been converted to the cleaved product. […]

[5] = target: human PIN1 (Homo sapiens, UniProt Q13526); settings: Hennig et al., Biochemistry 37: 5953-5960 (1998); cited from earlier work
[6] = ITC, 15.0° C., duplicate, ± standard deviation
[7] = best fit of corrected binding data, FIG. 6

In the case of CC(C)C[C@H](NC(=O)[C@H](Cc1ccccc1)NC(=O)[C@@H]1CCCN1C(=O)[C@H](COP(=O)(O)O)NC(=O)[C@H](Cc1ccc(O)cc1)NC(=O)[C@H](Cc1ccccc1)NC(=O)[C@@H](N)Cc1c[nH]c2ccccc12)C(=O)N[C@@H](CCC(=O)O)C(=O)O [Pintide] (H-WFY[pS]PFLE-OH), the pIC50 [1] was 5.00 to 5.15.
For O=C(N[C@@H](COP(=O)(O)O)Cc1ccccc1)c1cc2ccccc2s1 [Compound I, Phosphoric acid mono-{(R)-2-[(1-benzo[b]thiophen-2-yl-methanoyl)-amino]-3-phenyl-propyl} ester], the enthalpy of binding [2, 6] was −7.3 (±0.1) kcal/mol, the stoichiometry [2, 6] was 0.854 (±0.003) and the C value [2, 7] was 142. It also gave a ka [2, 7] of 1.42e+07 M⁻¹.
C[C@H](NC(=O)CCC(=O)O)C(=O)N[C@@H](CCC(=O)O)C(=O)N1CCC[C@H]1C(=O)N[C@@H](Cc1ccccc1)C(=O)Nc1ccc([N+](=O)[O-])cc1 [Suc-AEPF-pNA] (Suc-AEPF-pNA) gave a Km [3] greater than 100 µM.
“wild-type PIN1: wild type human PIN1, a phosphorylation dependent peptidyl-prolyl isomerase” gave a rate [4] of 0.2.
In the case of O=C1C=CC(=O)c2c(O)cccc21 [juglone, 5-hydroxy-1,4-naphthoquinone], the “inhibition of parvulins, including human PIN1” value [5] is listed as “selectively inhibits”.
